Strand notation (5' to 3'): a small letter for the sugar, then the base; units joined by * are phosphorothioate-linked, units joined directly phosphodiester-linked; [ ] holds rarer units or linkages, { } end groups; capitals alone tell only the bases. e = 2'-O-(2-methoxyethyl) (MOE); [5mC] = 5-methylcytosine; d = 2'-deoxy (DNA)
Experiments:
Assay type in all cases: in vivo
[1] = Tolerability in CD1 mice: liver function (Example 43); design: Albumin: unit not given here; settings: 50 mg/kg s.c. twice per week for 6 weeks, plasma
[2] = Tolerability in CD1 mice: kidney function (Example 43); settings: 50 mg/kg s.c. twice per week for 6 weeks, plasma
[3] = Kidney function, BUN, urine protein to creatinine ratio in cynomolgus monkeys (Example 46); settings: for Urine protein/creatinine ratio: day 49
Description: Groups, each consisting of two male and two female monkeys, were injected subcutaneously with 25 mg/kg of ISIS 416850, ISIS 449709, ISIS 445522, ISIS 449710, ISIS 449707, ISIS 449711, ISIS 449708, 416858, and ISIS 445531. Antisense oligonucleotide was administered to the monkeys at 25 mg/kg three times per week for week 1 and 25 mg/kg twice per week for weeks 2 to 8. A control group, consisting of two male and two female monkeys was injected subcutaneously with PBS according to the same dosing regimen. Body weights were taken 14 days and 7 days before the start of treatment and were then measured weekly throughout the treatment period. Blood samples were collected 14 days and 5 days before the start of treatment and subsequently several times during the dosing regimen for PT and aPTT measurements, and measurement of various hematologic factors. On day 55, the monkeys were euthanized by exsanguination while under deep anesthesia, and organs harvested for further analysis.
To evaluate the impact of ISIS oligonucleotides on kidney function, urine samples were collected on different days. […] The ratio of urine protein to creatinine in urine samples after antisense oligonucleotide treatment was also calculated for day 49 and results are presented in Table 156. As observed in Tables 155 and 156, there were no significant increases in any of the kidney metabolic markers after antisense oligonucleotide treatment.

[4] = Day −5 (before start of treatment)
[5] = Day −14 (before start of treatment)

In the case of “ISIS 449707: 3-8-3, 4-8-4, 2-10-2, 3-10-3 or 4-10-4 MOE microwalk gapmer (Table 46) (antisense e[5mC]*eA*e[5mC]*eA*dG*dT*dT*dT*d[5mC]*dT*dG*dG*e[5mC]*eA*eG*eG)”, the ALT [1] is reported as 41 IU/L, the AST [1] is reported as 62 IU/L and the Albumin [1] is reported as 2.3. It also gave a Bilirubin [1] of 0.19 mg/dL, a BUN [2] of 27 mg/dL and a Creatinine [2] of 0.2 mg/dL. The BUN levels ([3]; Day 31) was 21 mg/dL, the BUN levels ([3]; Day 55) was 20 mg/dL and the BUN levels [3, 4] was 21 mg/dL. It also gave a BUN levels [3, 5] of 25 mg/dL and a Urine protein/creatinine ratio [3] of 0.03.

For “ISIS 449708: 3-8-3, 4-8-4, 2-10-2, 3-10-3 or 4-10-4 MOE microwalk gapmer (Table 46) (antisense eA*e[5mC]*eA*dG*dT*dT*dT*d[5mC]*dT*dG*dG*e[5mC]*eA*eG)”, the ALT [1] was 66 IU/L, the AST [1] was 103 IU/L and the Albumin [1] was 2.8. It also gave a Bilirubin [1] of 0.17 mg/dL, a BUN [2] of 28 mg/dL and a Creatinine [2] of 0.2 mg/dL. It also gave a BUN levels ([3]; Day 31) of 23 mg/dL, a BUN levels ([3]; Day 55) of 23 mg/dL and a BUN levels [3, 4] of 23 mg/dL. For the same substance, the BUN levels [3, 5] was 25 mg/dL and the Urine protein/creatinine ratio [3] was 0.00.

Work on “ISIS 449709: 3-8-3, 4-8-4, 2-10-2, 3-10-3 or 4-10-4 MOE microwalk gapmer (Table 46) (antisense eG*e[5mC]*eA*e[5mC]*dA*dG*dT*dT*dT*d[5mC]*dT*dG*dG*d[5mC]*eA*eG*eG*e[5mC])” yielded an ALT [1] of 62 IU/L, an AST [1] of 83 IU/L and an Albumin [1] of 2.8. It also gave a Bilirubin [1] of 0.18 mg/dL, a BUN [2] of 34 mg/dL and a Creatinine [2] of 0.3 mg/dL. The BUN levels ([3]; Day 31) was 20 mg/dL, the BUN levels ([3]; Day 55) was 28 mg/dL and the BUN levels [3, 4] was 21 mg/dL. It also gave a BUN levels [3, 5] of 22 mg/dL and a Urine protein/creatinine ratio [3] of 0.05.

Reference: US20230263822A1, “MODULATION OF FACTOR 11 EXPRESSION” (Ionis Pharmaceuticals, Inc., priority 2008, published 2023)
